Reference: PMC9898036, “VIP152 is a selective CDK9 inhibitor with pre-clinical in vitro and in vivo efficacy in chronic lymphocytic leukemia” (Leukemia, 2022)
Read-outs that look alike come from different tables or passages of the source.

Assays:
Assay in all cases: DiscoverX KINOMEscan kinase profiling (468 assays)
Type in all cases: binding
human kinome [1] = target: human kinome (Homo sapiens, UniProt O43283); settings: LZK (Entrez MAP3K13); 100 nM; read-out: Percent Control
Description: (§1) Kinomescan Kinase Profiling Assay
(§2) Kinomescan Assay was performed at DiscoverRX and described in Fabian, et al. 2005, Nat.
(§3) Biotechnol. In brief, kinases were produced and subsequently tagged with DNA for qPCR detection.
(§4) Streptavidin-coated magnetic beads were bound to biotinylated kinase ligands to serve as a solid support.
(§5) VIP152 was dissolved in DMSO and tested across a 10 serial threefold dilution set and compared to a test
(§6) compound and a DMSO control.
(§7) Kinome map was produced via TreeSpot
(§8) Analysis from DiscoverRX. […]

human kinome [2] = target: human kinome (Homo sapiens, UniProt O94768); settings: DRAK2 (Entrez STK17B); 100 nM; read-out: Percent Control
Description: as §1, §2, §3, §4, §5, §6, §7, §8

human kinome [3] = target: human kinome (Homo sapiens, UniProt P07332); settings: FES; 100 nM; read-out: Percent Control
Description: as §1, §2, §3, §4, §5, §6, §7, §8

human kinome [4] = target: human kinome (Homo sapiens, UniProt P08581); settings: MET; 100 nM; read-out: Percent Control
Description: as §1, §2, §3, §4, §5, §6, §7, §8

human kinome [5] = target: human kinome (Homo sapiens, UniProt P15056); settings: BRAF; 100 nM; read-out: Percent Control
Description: as §1, §2, §3, §4, §5, §6, §7, §8

human kinome [6] = target: human kinome (Homo sapiens, UniProt P23443); settings: kinase S6K1 (Entrez RPS6KB1); compound concentration 1000 nM; read-out: Percent Control
Description: as §1, §2, §3, §4, §5, §6, §7, §8

human kinome [7] = target: human kinome (Homo sapiens, UniProt P25098); settings: GRK2 (Entrez ADRBK1); 100 nM; read-out: Percent Control
Description: as §1, §2, §3, §4, §5, §6, §7, §8

human kinome [8] = target: human kinome (Homo sapiens, UniProt P31751); settings: AKT2; 100 nM; read-out: Percent Control
Description: as §1, §2, §3, §4, §5, §6, §7, §8

human kinome [9] = target: human kinome (Homo sapiens, UniProt P35916); settings: FLT4; 100 nM; read-out: Percent Control
Description: as §1, §2, §3, §4, §5, §6, §7, §8

human kinome [10] = target: human kinome (Homo sapiens, UniProt P36888, K663Q); settings: FLT3(K663Q); 100 nM; read-out: Percent Control
Description: as §1, §2, §3, §4, §5, §6, §7, §8

human kinome [11] = target: human kinome (Homo sapiens, UniProt P41240); settings: CSK; 100 nM; read-out: Percent Control
Description: as §1, §2, §3, §4, §5, §6, §7, §8

human kinome [12] = target: human kinome (Homo sapiens, UniProt P52564); settings: MEK6 (Entrez MAP2K6); 100 nM; read-out: Percent Control
Description: as §1, §2, §3, §4, §5, §6, §7, §8

human kinome [13] = target: human kinome (Homo sapiens, UniProt P53778); settings: read-out: Percent Control
Sequence of human kinome (Homo sapiens, UniProt P53778) (P53778 whole entry): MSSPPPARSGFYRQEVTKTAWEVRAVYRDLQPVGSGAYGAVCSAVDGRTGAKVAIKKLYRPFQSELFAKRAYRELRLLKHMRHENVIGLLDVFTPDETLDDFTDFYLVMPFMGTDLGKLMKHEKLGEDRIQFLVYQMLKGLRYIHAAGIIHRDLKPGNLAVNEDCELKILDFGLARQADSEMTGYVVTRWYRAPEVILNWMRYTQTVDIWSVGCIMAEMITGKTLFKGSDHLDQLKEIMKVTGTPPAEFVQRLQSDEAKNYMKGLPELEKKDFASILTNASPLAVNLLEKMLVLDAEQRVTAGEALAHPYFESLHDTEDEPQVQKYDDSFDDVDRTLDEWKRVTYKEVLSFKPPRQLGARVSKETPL
Description: as §1, §2, §3, §4, §5, §6, §7, §8

human kinome [14] = target: human kinome (Homo sapiens, UniProt Q00535); settings: CDK5; 100 nM; read-out: Percent Control
Sequence of human kinome (Homo sapiens, UniProt Q00535) (Q00535 whole entry): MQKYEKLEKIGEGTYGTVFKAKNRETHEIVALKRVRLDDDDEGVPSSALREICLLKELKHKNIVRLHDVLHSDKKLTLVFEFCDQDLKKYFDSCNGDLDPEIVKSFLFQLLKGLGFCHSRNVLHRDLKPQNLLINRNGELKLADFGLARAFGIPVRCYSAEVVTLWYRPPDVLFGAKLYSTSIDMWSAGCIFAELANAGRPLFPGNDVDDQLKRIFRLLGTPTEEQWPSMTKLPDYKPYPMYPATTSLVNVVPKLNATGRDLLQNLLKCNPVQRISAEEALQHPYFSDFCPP
Description: as §1, §2, §3, §4, §5, §6, §7, §8

human kinome [15] = target: human kinome (Homo sapiens, UniProt Q04759); settings: read-out: Percent Control
Sequence of human kinome (Homo sapiens, UniProt Q04759) (Q04759 whole entry): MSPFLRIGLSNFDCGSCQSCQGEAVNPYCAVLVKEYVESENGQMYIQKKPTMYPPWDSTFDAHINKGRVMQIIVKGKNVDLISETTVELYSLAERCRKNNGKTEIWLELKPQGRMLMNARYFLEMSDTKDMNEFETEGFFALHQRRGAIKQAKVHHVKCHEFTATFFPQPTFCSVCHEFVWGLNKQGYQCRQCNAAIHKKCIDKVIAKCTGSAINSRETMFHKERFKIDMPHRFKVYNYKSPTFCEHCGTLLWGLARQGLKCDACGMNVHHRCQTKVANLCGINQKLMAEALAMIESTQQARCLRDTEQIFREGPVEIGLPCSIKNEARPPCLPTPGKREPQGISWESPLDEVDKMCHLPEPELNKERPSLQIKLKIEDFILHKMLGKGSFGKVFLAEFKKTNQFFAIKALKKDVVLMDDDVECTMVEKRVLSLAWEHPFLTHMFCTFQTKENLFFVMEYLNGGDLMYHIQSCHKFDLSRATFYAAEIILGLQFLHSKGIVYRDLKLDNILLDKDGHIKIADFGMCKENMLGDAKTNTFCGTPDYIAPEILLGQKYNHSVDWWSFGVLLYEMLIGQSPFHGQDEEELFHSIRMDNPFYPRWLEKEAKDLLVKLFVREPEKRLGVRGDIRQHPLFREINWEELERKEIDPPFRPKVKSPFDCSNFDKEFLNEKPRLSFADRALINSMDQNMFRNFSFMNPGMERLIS
Description: as §1, §2, §3, §4, §5, §6, §7, §8

human kinome [16] = target: human kinome (Homo sapiens, UniProt Q14289); settings: read-out: Percent Control
Sequence of human kinome (Homo sapiens, UniProt Q14289) (Q14289 whole entry): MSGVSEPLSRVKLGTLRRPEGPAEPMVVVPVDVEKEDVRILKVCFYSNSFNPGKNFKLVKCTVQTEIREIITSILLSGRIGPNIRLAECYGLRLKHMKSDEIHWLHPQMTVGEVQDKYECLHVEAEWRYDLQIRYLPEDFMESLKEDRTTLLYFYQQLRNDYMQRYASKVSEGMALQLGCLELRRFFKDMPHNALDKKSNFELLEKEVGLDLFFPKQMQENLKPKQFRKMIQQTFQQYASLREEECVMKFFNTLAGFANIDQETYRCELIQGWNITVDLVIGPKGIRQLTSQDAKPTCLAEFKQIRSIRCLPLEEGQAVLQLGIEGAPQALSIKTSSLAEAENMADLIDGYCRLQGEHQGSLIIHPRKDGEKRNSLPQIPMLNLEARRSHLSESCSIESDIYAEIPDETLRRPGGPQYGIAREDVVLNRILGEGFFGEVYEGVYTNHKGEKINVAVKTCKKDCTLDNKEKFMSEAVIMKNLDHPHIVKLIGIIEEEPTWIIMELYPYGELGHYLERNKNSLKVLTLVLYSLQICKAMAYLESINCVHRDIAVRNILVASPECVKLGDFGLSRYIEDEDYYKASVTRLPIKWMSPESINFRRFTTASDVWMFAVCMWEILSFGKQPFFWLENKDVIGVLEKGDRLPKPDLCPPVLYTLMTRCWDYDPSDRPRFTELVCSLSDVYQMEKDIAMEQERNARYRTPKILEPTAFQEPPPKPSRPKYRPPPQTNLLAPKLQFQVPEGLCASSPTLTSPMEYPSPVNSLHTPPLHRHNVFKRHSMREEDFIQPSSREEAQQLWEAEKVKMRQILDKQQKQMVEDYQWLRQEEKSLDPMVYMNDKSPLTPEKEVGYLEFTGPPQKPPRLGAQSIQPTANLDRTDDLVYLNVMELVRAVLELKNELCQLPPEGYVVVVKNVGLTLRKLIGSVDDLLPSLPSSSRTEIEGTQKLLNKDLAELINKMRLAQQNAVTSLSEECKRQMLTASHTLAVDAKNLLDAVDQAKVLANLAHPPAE
Description: as §1, §2, §3, §4, §5, §6, §7, §8

human kinome [17] = target: human kinome (Homo sapiens, UniProt Q16659); settings: ERK3 (Entrez MAPK6); 100 nM; read-out: Percent Control
Description: as §1, §2, §3, §4, §5, §6, §7, §8

human kinome [18] = target: human kinome (Homo sapiens, UniProt Q32MK0); settings: MLCK (Entrez MYLK3); 100 nM; read-out: Percent Control
Description: as §1, §2, §3, §4, §5, §6, §7, §8

human kinome [19] = target: human kinome (Homo sapiens, UniProt Q5S007); settings: LRRK2; 100 nM; read-out: Percent Control
Description: as §1, §2, §3, §4, §5, §6, §7, §8

human kinome [20] = target: human kinome (Homo sapiens, UniProt Q8WXR4); settings: read-out: Percent Control
Sequence of human kinome (Homo sapiens, UniProt Q8WXR4) (Q8WXR4 whole entry): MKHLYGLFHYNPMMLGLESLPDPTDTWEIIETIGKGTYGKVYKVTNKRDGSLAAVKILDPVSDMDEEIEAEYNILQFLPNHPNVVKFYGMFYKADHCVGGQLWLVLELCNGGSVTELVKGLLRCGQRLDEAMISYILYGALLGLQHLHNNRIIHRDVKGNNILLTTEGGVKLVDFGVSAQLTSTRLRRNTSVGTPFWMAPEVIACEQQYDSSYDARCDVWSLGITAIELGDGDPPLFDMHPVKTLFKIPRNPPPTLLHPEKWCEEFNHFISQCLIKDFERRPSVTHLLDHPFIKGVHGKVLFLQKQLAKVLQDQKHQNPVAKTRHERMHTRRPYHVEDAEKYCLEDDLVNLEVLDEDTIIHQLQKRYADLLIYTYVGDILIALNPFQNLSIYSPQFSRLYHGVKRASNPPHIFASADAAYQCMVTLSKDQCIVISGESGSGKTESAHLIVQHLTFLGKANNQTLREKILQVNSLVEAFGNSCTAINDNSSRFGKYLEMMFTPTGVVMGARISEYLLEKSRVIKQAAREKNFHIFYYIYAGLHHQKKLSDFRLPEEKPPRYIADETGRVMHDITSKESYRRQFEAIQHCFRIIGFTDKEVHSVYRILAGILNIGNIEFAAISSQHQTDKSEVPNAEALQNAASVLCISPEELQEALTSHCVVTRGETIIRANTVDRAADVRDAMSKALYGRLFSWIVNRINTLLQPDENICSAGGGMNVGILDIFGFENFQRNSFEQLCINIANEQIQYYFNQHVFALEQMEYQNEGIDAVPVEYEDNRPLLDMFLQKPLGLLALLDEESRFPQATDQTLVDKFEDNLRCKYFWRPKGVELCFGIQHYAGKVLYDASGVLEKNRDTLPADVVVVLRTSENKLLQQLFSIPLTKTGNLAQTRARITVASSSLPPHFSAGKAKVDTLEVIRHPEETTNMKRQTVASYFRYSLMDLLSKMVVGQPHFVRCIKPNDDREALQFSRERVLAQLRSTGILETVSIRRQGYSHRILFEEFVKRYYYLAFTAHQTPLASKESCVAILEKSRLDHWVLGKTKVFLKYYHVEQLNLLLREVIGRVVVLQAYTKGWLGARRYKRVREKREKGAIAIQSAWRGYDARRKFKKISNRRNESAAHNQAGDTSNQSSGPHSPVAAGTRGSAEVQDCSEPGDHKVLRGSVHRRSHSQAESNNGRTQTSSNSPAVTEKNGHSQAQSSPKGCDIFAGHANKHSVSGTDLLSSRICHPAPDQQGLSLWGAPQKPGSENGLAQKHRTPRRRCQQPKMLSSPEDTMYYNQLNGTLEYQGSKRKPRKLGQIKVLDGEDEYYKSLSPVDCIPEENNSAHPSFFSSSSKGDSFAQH
Description: as §1, §2, §3, §4, §5, §6, §7, §8

human kinome [21] = target: human kinome (Homo sapiens, UniProt Q92630); settings: DYRK2; 100 nM; read-out: Percent Control
Description: as §1, §2, §3, §4, §5, §6, §7, §8

human kinome [22] = target: human kinome (Homo sapiens, UniProt Q96RR4); settings: CAMKK2; 100 nM; read-out: Percent Control
Description: as §1, §2, §3, §4, §5, §6, §7, §8

human kinome [23] = target: human kinome (Homo sapiens, UniProt Q9BUB5); settings: MKNK1; 100 nM; read-out: Percent Control
Description: as §1, §2, §3, §4, §5, §6, §7, §8

human kinome [24] = target: human kinome (Homo sapiens, UniProt Q9BWU1); settings: CDK11 (Entrez CDK19); 100 nM; read-out: Percent Control
Description: as §1, §2, §3, §4, §5, §6, §7, §8

human kinome [25] = target: human kinome (Homo sapiens, UniProt Q9UIK4); settings: DAPK2; 100 nM; read-out: Percent Control
Description: as §1, §2, §3, §4, §5, §6, §7, §8

human kinome [26] = target: human kinome (Homo sapiens, UniProt Q9UK32); settings: compound concentration 1000 nM, read-out: Percent Control
Sequence of human kinome (Homo sapiens, UniProt Q9UK32) (Q9UK32 whole entry): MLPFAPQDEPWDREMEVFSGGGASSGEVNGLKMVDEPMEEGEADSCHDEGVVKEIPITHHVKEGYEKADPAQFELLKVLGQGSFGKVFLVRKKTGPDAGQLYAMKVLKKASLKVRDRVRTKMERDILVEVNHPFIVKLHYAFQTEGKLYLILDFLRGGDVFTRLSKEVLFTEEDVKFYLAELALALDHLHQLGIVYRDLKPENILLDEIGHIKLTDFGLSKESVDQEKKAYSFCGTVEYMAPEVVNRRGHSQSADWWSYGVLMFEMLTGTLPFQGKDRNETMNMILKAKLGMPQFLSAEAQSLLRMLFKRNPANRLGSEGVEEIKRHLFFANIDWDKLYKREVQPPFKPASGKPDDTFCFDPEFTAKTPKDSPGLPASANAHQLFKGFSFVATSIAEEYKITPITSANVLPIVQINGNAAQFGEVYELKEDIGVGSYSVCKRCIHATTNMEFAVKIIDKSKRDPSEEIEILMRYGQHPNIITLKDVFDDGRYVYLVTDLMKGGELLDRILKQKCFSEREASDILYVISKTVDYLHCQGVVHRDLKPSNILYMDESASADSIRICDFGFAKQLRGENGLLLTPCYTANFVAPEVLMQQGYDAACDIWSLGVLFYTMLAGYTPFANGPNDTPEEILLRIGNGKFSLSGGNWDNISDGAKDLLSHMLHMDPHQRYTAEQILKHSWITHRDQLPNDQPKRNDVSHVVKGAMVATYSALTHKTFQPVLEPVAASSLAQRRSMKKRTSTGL
Description: as §1, §2, §3, §4, §5, §6, §7, §8

human kinome [27] = target: human kinome (Homo sapiens, UniProt Q9UKI8); settings: kinase TLK1 (Entrez TLK1); compound concentration 1000 nM; read-out: Percent Control
Description: as §1, §2, §3, §4, §5, §6, §7, §8

human kinome [28] = target: human kinome (Homo sapiens, UniProt Q9Y2H1); settings: read-out: Percent Control
Sequence of human kinome (Homo sapiens, UniProt Q9Y2H1) (Q9Y2H1 whole entry): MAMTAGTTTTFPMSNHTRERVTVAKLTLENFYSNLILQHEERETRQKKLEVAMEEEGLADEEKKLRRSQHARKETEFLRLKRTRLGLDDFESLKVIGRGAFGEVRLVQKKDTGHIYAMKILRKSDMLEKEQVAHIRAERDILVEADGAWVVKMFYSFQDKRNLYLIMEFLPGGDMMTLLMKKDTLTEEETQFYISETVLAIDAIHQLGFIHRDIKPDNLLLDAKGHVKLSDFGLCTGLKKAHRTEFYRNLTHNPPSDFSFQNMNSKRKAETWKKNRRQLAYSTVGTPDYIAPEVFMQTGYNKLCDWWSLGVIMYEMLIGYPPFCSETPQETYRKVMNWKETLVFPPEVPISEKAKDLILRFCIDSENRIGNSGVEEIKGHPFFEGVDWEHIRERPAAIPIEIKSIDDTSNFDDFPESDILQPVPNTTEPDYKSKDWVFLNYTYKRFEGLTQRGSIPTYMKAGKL
Description: as §1, §2, §3, §4, §5, §6, §7, §8

human kinome [29] = settings: for Percent Control: 100 nM
Description: as §1, §2, §3, §4, §5, §6, §7, §8

With `COc1cc(F)ccc1-c1cc(Nc2cc(CS(C)(=N)=O)ccn2)ncc1F` (centres unmarked) [VIP152] the remaining binding at 0.1 µM (human kinome [1]) was 100%, the remaining binding at 0.1 µM (human kinome [2]) was 100% and the remaining binding at 0.1 µM (human kinome [3]) was 100%. The remaining binding at 0.1 µM (human kinome [4]) was 57%, the remaining binding at 0.1 µM (human kinome [5]) was 100% and the remaining binding at 1 µM (human kinome [6]) was 100%. The remaining binding at 0.1 µM (human kinome [7]) was 100%, the remaining binding at 0.1 µM (human kinome [8]) was 100% and the remaining binding at 0.1 µM (human kinome [9]) was 100%. It also gave a remaining binding at 0.1 µM (human kinome [10]) of 100%, a remaining binding at 0.1 µM (human kinome [11]) of 100% and a remaining binding at 0.1 µM (human kinome [12]) of 100%. It also gave a remaining binding at 1 µM (human kinome [13]; kinase p38-gamma (Entrez MAPK12), compound concentration 1000 nM) of 100%, a remaining binding at 0.1 µM (human kinome [13]; p38-gamma (Entrez MAPK12), 100 nM) of 76% and a remaining binding at 0.1 µM (human kinome [14]) of 100%. The remaining binding at 0.1 µM (human kinome [15]; PRKCQ, 100 nM) was 100%, the remaining binding at 1 µM (human kinome [15]; kinase PRKCQ (Entrez PRKCQ), compound concentration 1000 nM) was 62% and the remaining binding at 0.1 µM (human kinome [16]; PYK2 (Entrez PTK2B), 100 nM) was 100%. For the same compound, the remaining binding at 1 µM (human kinome [16]; kinase PYK2 (Entrez PTK2B), compound concentration 1000 nM) was 90%, the remaining binding at 0.1 µM (human kinome [17]) was 100% and the remaining binding at 0.1 µM (human kinome [18]) was 100%. For the same compound, the remaining binding at 0.1 µM (human kinome [19]) was 100%, the remaining binding at 0.1 µM (human kinome [20]; MYO3B, 100 nM) was 100% and the remaining binding at 1 µM (human kinome [20]; kinase MYO3B (Entrez MYO3B), compound concentration 1000 nM) was 68%. It also gave a remaining binding at 0.1 µM (human kinome [21]) of 99%, a remaining binding at 0.1 µM (human kinome [22]) of 92% and a remaining binding at 0.1 µM (human kinome [23]) of 94%. It also gave a remaining binding at 0.1 µM (human kinome [24]) of 100%, a remaining binding at 0.1 µM (human kinome [25]) of 100% and a remaining binding at 1 µM (human kinome [26]; kinase RSK4(Kin.Dom.1-N-terminal) (Entrez RPS6KA6)) of 94%. It also gave a remaining binding at 1 µM (human kinome [26]; kinase RSK4(Kin.Dom.2-C-terminal) (Entrez RPS6KA6)) of 89%, a remaining binding at 1 µM (human kinome [27]) of 89% and a remaining binding at 0.1 µM (human kinome [28]; NDR2 (Entrez STK38L), 100 nM) of 100%. For the same compound, the remaining binding at 1 µM (human kinome [28]; kinase NDR2 (Entrez STK38L), compound concentration 1000 nM) was 100%, the “Interactions Mapped” value (human kinome [29]; @100nM, 468 Assays Tested) was 4 and the “Percent Control” value (human kinome [29]; EGFR(L747-E749del, A750P)) was 100%. For the same compound, the “Percent Control” value (human kinome [29]; EGFR(L747-S752del, P753S)) was 93%, the “Percent Control” value (human kinome [29]; EGFR(L747-T751del,Sins)) was 100% and the “Percent Control” value (human kinome [29]; FLT3(ITD)) was 100%. The “Percent Control” value (human kinome [29]; FLT3(ITD,D835V)) was 100% and the “Percent Control” value (human kinome [29]; FLT3(ITD,F691L)) was 99%.
